Assay results published in publication PMC10914731, “Homo-BacPROTAC-induced degradation of ClpC1 as a strategy against drug-resistant mycobacteria” (Nature Communications, 2024).
Several values for one entry are separate records, joined by “and”; a condition that tells them apart may be missing. Equal values may be shown once. Read-outs that look alike come from different tables or passages of the source. *1 amine or outer side, *2 acyl side, *3 side chain or, on linkers, in order; H or OH if unused. Where a SMILES comes first, the peptide text is derived from it. [ ]: non-standard residue; d: D form. X1 = C#CCn1cc(C[C@H](N[*:1])C(=O)[*:2])c2ccccc21; NMeLeu(5-OH,4R) = CN[C@@H](C[C@@H](C)CO)C(=O)O; Phe(βR-OMe) = CO[C@H](c1ccccc1)[C@H](N)C(=O)O; NMeL = CN[C@@H](CC(C)C)C(=O)O

Assays:
[1] = in vivo; type: in vivo, BALB/cAnNCrl mice; settings: mouse, in vivo, iv
Protocol: (§1) The in-life experimental procedures were conducted in strict compliance with German and European animal welfare legislation in an AAALAC-accredited facility. Male BALB/cAnNCrl mice (Charles River Laboratories Research Models and Services, 97633 Sulzfeld, Germany) were used. Animals were 9 weeks old at dosing with a body weight of 21.6–24.3 g. Animals were delivered free of pathogens according to FELASA recommendations with a health certificate provided by the breeder. Upon receipt, the state of health and sex was checked. Animals acclimatized for at least 5 days before the commencement of the in-life phase. During acclimation, animals were group-housed in individually ventilated cages, on birch wood granulate bedding with species-specific enrichment (nesting material, mouse igloo, gnawing wood). During experimental conduct, animals were housed in conventional cages with elevated grid floors. Grid floor was used to avoid contamination with test item material excreted via urine and feces and subsequent reuptake during fur grooming. No bedding and enrichment were provided except a cage divider, which can be used as a shelter. Animals always had unlimited access to food and water and received a pelleted, total pathogen-free maintenance diet and tap drinking water, sterilized by filter.
In case of incomplete dissolution, the formulation was filtered at 40 °C (non-pyrogenic sterile-R filter, 0.2 µm). All formulations were stirred warm until administration. Actual test item content was determined bioanalytically.
(§2) Male BALB/cAnNCrl mice (n = 3 per test item and administration route) received a bolus dose of the formulated test item(s) (1 mg/kg iv, 30 mg/kg po) at t = 0 h, and whole blood samples were collected subsequently (35 µl at 0.1 (iv) / 0.25 (po), 0.5, 1, 2, 4, 6 h; 600 µl at sacrifice after 24 h). Animals were euthanized by exsanguination in deep isoflurane anesthesia. Whole blood samples were immediately stored on ice at about 4 °C. Plasma was separated by centrifugation at approximately 10,000 × g for 5 m at +4 °C. Centrifugation of each blood sample was started within 10 m after collection. A single aliquot of at least 15 µL of plasma was prepared and immediately stored at −20 ± 5 °C.
(§3) Sample proteins were precipitated with ACN (1 + 12, v/v) containing internal standard, and supernatants analyzed by quantitative UPLC-MS/MS: Phenomenex Luna Omega C18, 2.1 × 50 mm, 1.6 µm, 40 °C, gradient between 10% - 90% ACN with 0.1% formic acid. LogD determination: Lipophilicity of the test items, expressed as chromLogD7.5, was assessed by measuring their chromatographic retention times on C18-material. The chromatographic retention versus logD7.5 values of a series of thirteen n-alkan-2-ones (2-butanone – 2-hexadecanone) served as lipophilicity calibration.

[2] = test system: Mtb H37Rv; experiment: Minimum bactericidal concentration (MBC), Mtb H37Rv; type: cell-based, Mycobacterium tuberculosis; settings: Mycobacterium tuberculosis, H37RV
[3] = test system: Msm #607; experiment: Minimum bactericidal concentration (MBC), Msm #607; type: cell-based, Mycobacterium smegmatis; settings: Mycolicibacterium smegmatis
[4] = in vivo; type: in vivo, BALB/cAnNCrl mice
Protocol: as §1
On the day before dosing, test item(s) were suspended in kleptose (20% in WFI) under continuous stirring (3.0 mg/ml). Following 2 min vortexing and 1 h stirring, the formulation was sonicated at 60 °C for 30 min and stirred at ambient temperature overnight. Before dosing, the formulation was vortexed for 2 min followed by ultraturrax treatment for 2 min.
as §2, §3

[5] = target: ClpC1-NTD substrate, M. tuberculosis ClpC1P1P2 (Mycobacterium tuberculosis, UniProt P9WPC9); experiment: biochemical; type: biochemical; settings: Mtb
ClpC1-NTD substrate, M. tuberculosis ClpC1P1P2, sequence (P9WPC5 whole entry): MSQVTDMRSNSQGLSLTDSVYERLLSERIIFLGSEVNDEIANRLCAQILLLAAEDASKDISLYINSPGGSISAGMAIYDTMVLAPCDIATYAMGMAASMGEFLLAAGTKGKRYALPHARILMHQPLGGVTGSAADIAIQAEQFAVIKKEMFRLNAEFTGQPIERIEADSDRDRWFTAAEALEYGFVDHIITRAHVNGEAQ
ClpC1-NTD substrate, M. tuberculosis ClpC1P1P2, sequence (P9WPC9 whole entry): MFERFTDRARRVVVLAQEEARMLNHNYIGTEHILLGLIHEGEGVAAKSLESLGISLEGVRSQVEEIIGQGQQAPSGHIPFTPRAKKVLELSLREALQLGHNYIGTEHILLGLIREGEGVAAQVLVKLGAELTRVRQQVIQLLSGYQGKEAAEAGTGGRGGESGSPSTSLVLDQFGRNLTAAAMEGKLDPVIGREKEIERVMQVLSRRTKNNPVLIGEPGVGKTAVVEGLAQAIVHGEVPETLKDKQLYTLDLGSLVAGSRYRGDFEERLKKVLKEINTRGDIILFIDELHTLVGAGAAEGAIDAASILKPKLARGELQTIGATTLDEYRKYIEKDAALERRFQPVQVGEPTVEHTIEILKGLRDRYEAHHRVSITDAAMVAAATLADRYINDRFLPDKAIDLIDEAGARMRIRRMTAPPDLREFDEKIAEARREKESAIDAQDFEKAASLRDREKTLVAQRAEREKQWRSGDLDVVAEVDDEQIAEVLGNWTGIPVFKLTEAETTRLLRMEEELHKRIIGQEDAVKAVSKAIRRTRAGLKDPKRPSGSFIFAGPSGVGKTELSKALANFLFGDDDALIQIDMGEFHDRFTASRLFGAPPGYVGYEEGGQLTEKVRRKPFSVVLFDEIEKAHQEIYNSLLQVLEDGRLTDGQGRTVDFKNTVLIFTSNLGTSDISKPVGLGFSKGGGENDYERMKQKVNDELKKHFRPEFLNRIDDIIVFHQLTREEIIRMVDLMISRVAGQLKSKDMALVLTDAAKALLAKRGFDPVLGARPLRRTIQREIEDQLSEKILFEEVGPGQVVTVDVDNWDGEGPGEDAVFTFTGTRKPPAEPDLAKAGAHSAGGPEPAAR
ClpC1-NTD substrate, M. tuberculosis ClpC1P1P2, sequence (P9WPC3 whole entry, further chain): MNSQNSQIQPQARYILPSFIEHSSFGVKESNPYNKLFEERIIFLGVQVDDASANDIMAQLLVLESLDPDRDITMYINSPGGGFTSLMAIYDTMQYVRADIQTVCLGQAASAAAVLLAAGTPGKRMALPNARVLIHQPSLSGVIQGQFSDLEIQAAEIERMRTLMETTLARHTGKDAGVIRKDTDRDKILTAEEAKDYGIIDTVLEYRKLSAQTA

[6] = Hepatocyte stability, mice; type: in vitro ADME; settings: mouse, pH 7.4
Summary of the method: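 Clearance, expressed as % of liver blood flow (% Qh), derived from parent-compound half-life by the well-stirred model, with HPLC-MS/MS quantitation after acetonitrile quench. Test compound at 1 µM final added to mouse hepatocyte suspension in 50% serum after 15–30 min acclimation at 37 °C; six samples over up to 6 h.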

[7] = oral gavage 30 mg/kg, mice, Mean, BLOQ <1.00 nmol/L
[8] = oral gavage, individual animals 1-3
[9] = oral gavage, individual animals 1-3, BLOQ <1.00 nmol/L

Question: For C#CCn1cc(C[C@@H]2NC(=O)[C@H](C(C)C)NC(=O)[C@H](CC(C)C)N(C)C(=O)[C@H](C(C)C)NC(=O)[C@H]([C@H](OC)c3ccccc3)NC(=O)[C@H](C)NC(=O)[C@H](C[C@@H](C)CO)N(C)C2=O)c2ccccc21 [Compound 5] (cyclo(A[Phe(βR-OMe)]V[NMeL]V[X1][NMeLeu(5-OH,4R)])), which half-life ([1]; male, BALB/cAnNCrl, 1.062 umol/kg, iv bolus, mice, Mean) is on record?
Answer: 1 h

Question: What about the MRT ([1]; male, BALB/cAnNCrl, 1.062 umol/kg, iv bolus, mice, Mean, read-out: MRT) of the same molecule?
Answer: 0.8 h

Question: And the Vd ([1]; male, BALB/cAnNCrl, 1.062 umol/kg, iv bolus, mice, Mean, read-out: Vss)?
Answer: 4.5 L/kg

Question: What about the Vd ([1]; male, BALB/cAnNCrl, 1 mg/kg, mice, 1 mg kg-1 iv bolus, read-out: VSS) of the same molecule?
Answer: 4.54 L/kg

Question: And the clearance ([1]; male, BALB/cAnNCrl, 1 mg/kg, plasma clearance, mice, 1 mg kg-1 iv bolus)?
Answer: 98.8 mL/min/kg

Question: What about the half-life ([1]; male, BALB/cAnNCrl, 1 mg/kg, plasma, mice, 1 mg kg-1 iv bolus) of the same molecule?
Answer: 1.03 h

Question: And the AUC [1]?
Answer: 164 h nM/(nmol kg-1)

Question: And the Cmax [1]?
Answer: 415 nM/(nmol kg-1)

Question: And the “Plasma concentration 6 h” value [1]?
Answer: BLOQ

Question: And the “Plasma concentration 24 h” value [1]?
Answer: BLOQ

Question: What about the MBC ([2]; read-out: MBC (from Set 3) Mtb H37Rv) of the same molecule?
Answer: 6.25 µM and 5.88 µg/mL

Question: What about the MBC ([2]; individual example, read-out: MBC Mtb H37Rv) of the same molecule?
Answer: 6.3 µM and 5.9 µg/mL

Question: What about the MBC ([3]; ATCC607, read-out: MBC (from Set 3) Msm ATCC 607) of the same molecule?
Answer: > 47 µg/mL and > 50 µM

Question: And the MBC ([3]; read-out: MBC Msm #607, individual example)?
Answer: > 50 µM and > 47.1 µg/mL

Question: What about the half-life ([4]; male, BALB/cAnNCrl, mouse, in vivo, po, […], oral gavage, individual animals 1-3) of the same molecule?
Answer: 0.609 h

Question: And the tmax ([4]; male, BALB/cAnNCrl, mouse, in vivo, po, […], oral gavage, individual animals 1-3, read-out: tmax)?
Answer: 1 h

Question: And the half-life ([4]; male, BALB/cAnNCrl, mouse, in vivo, po, […], oral gavage, mice, Mean)?
Answer: 0.579 h

Question: What about the tmax ([4]; male, BALB/cAnNCrl, mouse, in vivo, po, […], oral gavage, mice, Mean, read-out: tmax) of the same molecule?
Answer: 1.67 h

Question: And the “Plasma concentration 24 h” value ([4]; mouse, in vivo, po)?
Answer: BLOQ

Question: And the “Plasma concentration 0.5 h” value [4, 7]?
Answer: 11.7 nM

Question: What about the “Plasma concentration 1 h” value [4, 7] of the same molecule?
Answer: 15.5 nM

Question: And the “Plasma concentration 2 h” value [4, 7]?
Answer: 18.0 nM

Question: What about the “Plasma concentration 4 h” value [4, 7] of the same molecule?
Answer: 1.62 nM

Question: What about the “Plasma concentration 6 h” value [4, 7] of the same molecule?
Answer: 1.76 nM

Question: And the “Plasma concentration 24 h” value [4, 7]?
Answer: 4.22 nM

Question: What about the “Plasma concentration […]” value [4, 7] of the same molecule?
Answer: 12.2 nM

Question: And the AUC0-inf/Dose [4, 8]?
Answer: 3.14 h*nM/nmol/kg and 1.57 h*nM/nmol/kg and 1.80 h*nM/nmol/kg

Question: What about the AUC0-t/Dose [4, 8] of the same molecule?
Answer: 3.02 h*nM/nmol/kg and 1.53 h*nM/nmol/kg and 1.74 h*nM/nmol/kg

Question: And the Cmax/Dose [4, 8]?
Answer: 0.480 nM/nmol/kg and 0.558 nM/nmol/kg and 0.684 nM/nmol/kg

Question: What about the t1/2 [4, 8] of the same molecule?
Answer: 0.577 h and 0.551 h

Question: What about the tmax [4, 8] of the same molecule?
Answer: 2.00 h

Question: What about the “Plasma concentration 0.5 h” value [4, 9] of the same molecule?
Answer: 13.0 nM and 10.7 nM and 11.4 nM

Question: What about the “Plasma concentration 1 h” value [4, 9] of the same molecule?
Answer: 15.3 nM and 15.7 nM and 15.5 nM

Question: And the “Plasma concentration 2 h” value [4, 9]?
Answer: 14.5 nM and 17.8 nM and 21.8 nM

Question: And the “Plasma concentration 4 h” value [4, 9]?
Answer: 1.49 nM and 1.61 nM and 1.76 nM

Question: And the “Plasma concentration 6 h” value [4, 9]?
Answer: 1.54 nM and 1.59 nM and 2.14 nM

Question: And the “Plasma concentration 24 h” value [4, 9]?
Answer: 4.22 nM

Question: And the “Plasma concentration […]” value [4, 9]?
Answer: 14.2 nM and 11.7 nM and 10.6 nM

Question: And the BA ([4]; oral gavage, mice (compound 12: from Animal 2 only; compound 6: maximum potential value))?
Answer: 1.2%

Question: What about the AUC0-inf/Dose ([4]; oral gavage, mice, Mean) of the same molecule?
Answer: 2.17 h*nM/nmol/kg

Question: What about the Cmax/Dose ([4]; oral gavage, mice, Mean) of the same molecule?
Answer: 0.574 nM/nmol/kg

Question: What about the AUC0-t/Dose ([4]; oral gavage, mice, Mean (compound 6: maximum potential value with 1 nM for each time point)) of the same molecule?
Answer: 2.10 h*nM/nmol/kg

Question: And the DC50 ([5]; Measurement 1-4, read-out: DC50, single measurements)?
Answer: > 100 µM

Question: And the DC50 ([5]; mean of the measurements, read-out: DC50, Mean)?
Answer: > 100 µM

Question: And the “Hepatocyte Mice” value [6]?
Answer: 58 %Qh
